{
  "source": "paper PMC11123956",
  "about": "“Nobiletin Stimulates Adrenal Hormones and Modulates the Circadian Clock in Mice” (Nutrients, 2024)",
  "key": {"serum corticosterone": {"system": "serum corticosterone", "experiment": "Serum corticosterone ELISA after i.p. injection", "type": "in vivo, mice", "details": "100 mg/kg i.p. at ZT3, 1 h after administration", "description": "(§1) Male C57BL/6J mice (7 weeks old) were purchased from Charles River Japan (Kanagawa, Japan) and used for the serum hormone assay and RT-PCR. Male ICR mice were purchased from Tokyo Laboratory Animals Science Co., Ltd. (Tokyo, Japan), and female PERIOD2::LUCIFERASE (PER2::LUC) knock-in mice (ICR background) bred at Waseda University were used for blood glucose measurements and in vivo imaging assays, respectively. The mice were all housed under conditions of controlled temperature (23 °C ± 3 °C), humidity (50% ± 20%), and lighting (lights on from 07:00 to 19:00 at Taisho Pharmaceutical Co., Ltd. or from 08:00 to 20:00 at Waseda University). In the 24 h cycle, Zeitgeber time 0 (ZT0) was designated as the time when the lights were turned on, and ZT12 was designated as the time when the lights were turned off. […]\n(§2) Serum corticosterone, adrenaline, and adreno-corticotropic hormone (ACTH) levels, and corticotropin releasing factor (CRF) in the hypothalamus, were measured using enzyme-linked immunosorbent assay (ELISA). […] Blood glucose levels were measured using a Glucose PILOT kit (Aventir Biotech, LLC, Carlsbad, CA, USA). The range of blood glucose that could be precisely measured with the kit was 20–600 mg/dL. […]"}, "PDE11A4": {"molecular_target": "T1, PDE11A4 (Homo sapiens, UniProt Q9HCR9)", "T1 construct": "purchased Eurofins Panlabs Discovery Services Taiwan, Ltd. (contract assay); host or cells: insect Sf9 cells", "T1 sequence (Q9HCR9 whole entry)": "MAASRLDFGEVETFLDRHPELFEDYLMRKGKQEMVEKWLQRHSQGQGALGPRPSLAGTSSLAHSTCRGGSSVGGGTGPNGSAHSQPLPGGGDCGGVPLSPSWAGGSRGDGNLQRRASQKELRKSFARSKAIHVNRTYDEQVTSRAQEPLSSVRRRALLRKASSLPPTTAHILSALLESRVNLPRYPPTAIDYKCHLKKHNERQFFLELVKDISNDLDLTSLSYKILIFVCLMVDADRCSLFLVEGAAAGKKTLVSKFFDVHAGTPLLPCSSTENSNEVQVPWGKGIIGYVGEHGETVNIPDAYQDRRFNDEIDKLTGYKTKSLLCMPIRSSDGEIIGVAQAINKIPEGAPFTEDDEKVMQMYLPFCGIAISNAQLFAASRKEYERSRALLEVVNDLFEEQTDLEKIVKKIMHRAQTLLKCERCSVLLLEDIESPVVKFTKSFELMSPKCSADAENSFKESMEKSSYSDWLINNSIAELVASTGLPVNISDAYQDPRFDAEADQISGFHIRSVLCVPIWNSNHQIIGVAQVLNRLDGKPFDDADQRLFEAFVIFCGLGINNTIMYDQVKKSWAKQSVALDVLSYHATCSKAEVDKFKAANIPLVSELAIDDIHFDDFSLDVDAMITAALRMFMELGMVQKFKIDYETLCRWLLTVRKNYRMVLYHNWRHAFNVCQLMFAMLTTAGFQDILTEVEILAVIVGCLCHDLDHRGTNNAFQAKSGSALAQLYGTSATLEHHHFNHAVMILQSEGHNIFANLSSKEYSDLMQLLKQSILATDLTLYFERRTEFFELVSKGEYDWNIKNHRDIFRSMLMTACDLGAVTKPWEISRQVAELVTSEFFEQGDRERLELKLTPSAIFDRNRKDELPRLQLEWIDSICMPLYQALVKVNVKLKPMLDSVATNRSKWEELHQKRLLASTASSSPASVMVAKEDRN", "experiment": "PDE enzyme  assay, PDE11A4", "type": "biochemical", "description": "(§3) Enzyme assays for various subtypes of PDE (Table 1 and Figure 4) were conducted by Eurofins Panlabs Discovery Services Taiwan, Ltd. (New Taipei City, Taiwan). In the assays, five or six concentrations of nobiletin over five or six orders of magnitude were examined in experiments conducted in duplicate to determine the IC50 (concentration of nobiletin exerting half-maximal inhibition of control-specific activity). IC50 values were determined by nonlinear least squares regression analysis using MathIQTM (ID Business Solutions Ltd., Woking, UK). FAM-cAMP, FAM-cGMP (0.1 μM), and 100 μM [^3H]cGMP + cGMP were used for the substrate in the human recombinant insect Sf9 cells or Bovine retinal rod outer segments depending on the PDE subtype. The spectrofluorometric quantitation of fluorescein-AMP-IMAP, fluorescein-GMP-IMAP, or [^3H] guanosine was used depending on the PDE subtype. A known […] of each PDE was used as the positive control."}, "serum adrenaline": {"system": "serum adrenaline", "experiment": "Serum adrenaline ELISA after i.p. injection", "type": "in vivo, mice", "details": "intraperitoneal injection, 100 mg/kg", "description": "as §1, §2"}, "PDE6": {"molecular_target": "T2, PDE6 (Bos taurus, UniProt P11541+P23439)", "T2 construct": "Bovine retinal rod outer segments; tissue Eurofins Panlabs Discovery Services Taiwan, Ltd. (contract assay); host or cells: bovine retinal rod outer segments", "T2 sequence (P11541 2-856 limits assumed)": "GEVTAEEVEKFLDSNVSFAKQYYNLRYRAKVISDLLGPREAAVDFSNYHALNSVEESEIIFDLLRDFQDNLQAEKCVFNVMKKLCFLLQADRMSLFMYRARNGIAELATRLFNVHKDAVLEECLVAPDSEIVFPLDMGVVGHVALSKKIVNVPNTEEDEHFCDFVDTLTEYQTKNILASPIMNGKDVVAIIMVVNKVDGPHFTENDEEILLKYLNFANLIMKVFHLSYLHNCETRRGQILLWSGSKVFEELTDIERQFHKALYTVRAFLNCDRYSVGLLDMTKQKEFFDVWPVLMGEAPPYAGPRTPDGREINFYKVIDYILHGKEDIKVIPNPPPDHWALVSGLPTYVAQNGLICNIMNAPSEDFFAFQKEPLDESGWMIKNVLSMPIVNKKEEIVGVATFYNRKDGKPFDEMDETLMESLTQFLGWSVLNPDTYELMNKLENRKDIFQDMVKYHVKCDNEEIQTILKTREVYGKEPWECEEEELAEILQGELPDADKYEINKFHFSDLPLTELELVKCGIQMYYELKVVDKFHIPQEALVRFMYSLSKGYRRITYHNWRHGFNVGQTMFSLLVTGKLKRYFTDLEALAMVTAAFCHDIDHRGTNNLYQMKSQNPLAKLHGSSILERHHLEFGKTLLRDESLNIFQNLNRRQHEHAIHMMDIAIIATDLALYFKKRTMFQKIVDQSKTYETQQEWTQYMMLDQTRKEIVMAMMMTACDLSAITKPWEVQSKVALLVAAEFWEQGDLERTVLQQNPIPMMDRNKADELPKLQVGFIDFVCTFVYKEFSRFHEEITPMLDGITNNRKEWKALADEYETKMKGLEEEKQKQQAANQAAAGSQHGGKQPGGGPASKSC", "T2 sequence (P23439 2-850 limits assumed)": "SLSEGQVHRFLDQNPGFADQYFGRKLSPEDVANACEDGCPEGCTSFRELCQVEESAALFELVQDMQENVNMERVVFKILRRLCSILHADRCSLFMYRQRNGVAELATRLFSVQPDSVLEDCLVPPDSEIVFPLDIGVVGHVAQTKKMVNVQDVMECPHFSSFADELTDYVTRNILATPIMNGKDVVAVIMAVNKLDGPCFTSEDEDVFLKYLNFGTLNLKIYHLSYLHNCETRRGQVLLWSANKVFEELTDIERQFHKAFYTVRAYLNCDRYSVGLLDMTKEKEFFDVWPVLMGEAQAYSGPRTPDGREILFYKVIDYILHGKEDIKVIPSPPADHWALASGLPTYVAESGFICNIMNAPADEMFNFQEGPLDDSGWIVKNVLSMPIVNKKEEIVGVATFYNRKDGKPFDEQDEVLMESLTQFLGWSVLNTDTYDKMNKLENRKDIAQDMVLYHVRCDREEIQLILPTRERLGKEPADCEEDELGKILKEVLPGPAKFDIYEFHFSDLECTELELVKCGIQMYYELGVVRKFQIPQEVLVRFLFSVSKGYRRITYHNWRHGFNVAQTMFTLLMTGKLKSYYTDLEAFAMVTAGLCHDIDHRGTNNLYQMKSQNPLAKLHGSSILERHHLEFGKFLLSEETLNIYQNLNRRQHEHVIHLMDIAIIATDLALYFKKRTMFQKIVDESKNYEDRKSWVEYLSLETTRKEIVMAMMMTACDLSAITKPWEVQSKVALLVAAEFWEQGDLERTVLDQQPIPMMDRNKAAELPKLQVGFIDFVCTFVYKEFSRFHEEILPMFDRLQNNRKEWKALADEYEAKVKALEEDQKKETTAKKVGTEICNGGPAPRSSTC", "experiment": "PDE enzyme  assay, PDE6", "type": "biochemical, Bovine", "description": "as §3"}, "PDE2A": {"molecular_target": "T3, PDE2A (Homo sapiens, UniProt O00408)", "T3 construct": "purchased Eurofins Panlabs Discovery Services Taiwan, Ltd. (contract assay); host or cells: insect Sf9 cells", "T3 sequence (O00408 whole entry)": "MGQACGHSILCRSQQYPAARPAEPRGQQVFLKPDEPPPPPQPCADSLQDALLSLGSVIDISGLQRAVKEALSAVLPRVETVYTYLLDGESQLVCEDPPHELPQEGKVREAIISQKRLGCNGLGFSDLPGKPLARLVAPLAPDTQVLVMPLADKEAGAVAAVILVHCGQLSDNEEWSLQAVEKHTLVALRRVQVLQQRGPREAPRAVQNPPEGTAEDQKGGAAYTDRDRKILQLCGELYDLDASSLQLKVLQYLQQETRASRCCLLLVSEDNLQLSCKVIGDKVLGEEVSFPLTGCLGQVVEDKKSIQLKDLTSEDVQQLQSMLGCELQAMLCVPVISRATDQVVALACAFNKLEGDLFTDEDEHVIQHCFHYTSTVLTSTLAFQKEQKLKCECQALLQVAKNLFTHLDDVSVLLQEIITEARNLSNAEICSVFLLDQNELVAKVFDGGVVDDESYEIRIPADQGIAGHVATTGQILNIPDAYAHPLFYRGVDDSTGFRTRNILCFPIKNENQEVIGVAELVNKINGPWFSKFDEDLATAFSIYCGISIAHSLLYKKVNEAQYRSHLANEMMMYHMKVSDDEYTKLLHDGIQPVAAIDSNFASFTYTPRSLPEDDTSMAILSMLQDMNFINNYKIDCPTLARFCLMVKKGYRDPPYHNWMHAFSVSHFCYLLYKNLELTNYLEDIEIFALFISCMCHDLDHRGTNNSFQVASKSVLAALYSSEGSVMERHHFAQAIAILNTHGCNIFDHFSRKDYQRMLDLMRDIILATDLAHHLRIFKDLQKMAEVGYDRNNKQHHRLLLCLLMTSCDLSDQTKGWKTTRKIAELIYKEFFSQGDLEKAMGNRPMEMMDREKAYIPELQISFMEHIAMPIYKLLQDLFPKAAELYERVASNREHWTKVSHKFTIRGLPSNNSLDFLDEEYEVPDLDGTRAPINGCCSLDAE", "experiment": "PDE enzyme  assay, PDE2A", "type": "biochemical", "description": "as §3"}},
  "data": [
    {"molecule": "COc1ccc(-c2cc(=O)c3c(OC)c(OC)c(OC)c(OC)c3o2)cc1OC", "note": "[nobiletin]", "values": [
      {"measurement": "serum corticosterone levels", "setting": "serum corticosterone", "result": "increase"},
      {"measurement": "IC50", "setting": "PDE11A4", "result": 31, "unit": "µM"},
      {"measurement": "adrenaline secretion", "setting": "serum adrenaline", "result": "significantly and potently stimulated"},
      {"measurement": "IC50", "setting": "PDE6", "result": 74.5, "unit": "µM"},
      {"measurement": "IC50", "setting": "PDE2A", "result": 9.91, "unit": "µM"}
    ]}
  ]
}
